Experimental data published in article PMC9583322, “Vicinal Diaryl-Substituted Isoxazole and Pyrazole Derivatives with In Vitro Growth Inhibitory and In Vivo Antitumor Activity” (ACS Omega, 2022).

Columns and labels:
Huh7, Mahlavu and MCF7 = assay: SRB cytotoxicity, summary for all three cell lines; format: cell-based; conditions: Homo sapiens; one value or range for Huh7, Mahlavu and MCF7 together; read-out: IC50 against all three cell lines
Procedure: (§1) Mahlavu, FOCUS, SNU475 (1000 cell/well in 150 μL/well); Huh7, MCF7 (2500 cell/well in 150 μL/well); HepG2, Hep3B, SKBR3 (3000 cell/well in 150 μL/well); PLC-PRF-5, Hep40 (5000 cell/well in 150 μL/well); MDA-MB-231, MDA-MB-468, MCF10A (6000 cell/well in 150 μL/well); and ZR-75 (7500 cell/well in 150 μL/well) were cultured in 96-well plates and were inoculated in an incubator for 24 hours. The compounds were dissolved in dimethyl sulfoxide (DMSO) (Sigma, St Louis, MO) as a 20 mM stock solution. The treatment of cells with the compounds was done in a concentration range starting from 40 to 2.5 μM. The compounds which were below 2.5 μM were tested in a concentration range from 2.5 to 0.15 μM. End of the 72h compound treatment, the cells were fixed using 10% (v/v) trichloroacetic acid (MERCK) for an hour and washed with ddH2O, and left for air-drying. The fixed plates were stained with 50 μL of sulforhodamine B (SRB) solution (Sigma) at RT for 10 min. To remove unbound SRB dye, acetic acid was used to wash cells three times and left for drying. The protein-bound SRB was solubilized with 10 mM Tris-base (Sigma) and their absorbance was measured with a 96-well plate reader at 515 nm wavelength (ELx800, Biotek). The IC50 values of compounds were calculated in comparison with control group DMSO. Data with R^2 values larger than 0.9 are considered significant.

Huh7 = assay: SRB cytotoxicity assay; format: cell-based, human; conditions: 72 h treatment
Procedure: (§2) HepG2, FOCUS, Hep3B, Mahlavu, Huh7, Hep40, and PLC-PRF-5 hepatocellular carcinoma cells; MCF-7, MDA-MB-231, MDA-MB-468, SKBR3, and ZR-75 breast cancer cells; and normal-like epithelial MCF-10A breast cells were cultured in low-glucose Dulbecco’s modified Eagle’s medium (DMEM) (Biological Industries-BI) supplemented with 10% fetal bovine serum (FBS) (Gibco/Thermo Fisher Scientific), 2 mM L-Glutamine (Gibco/Thermo Fisher Scientific), 100 Units/mL Penicillin/Streptomycin, and 0.1 mM non-essential amino acid (Gibco/Thermo Fisher Scientific). SNU475 hepatocellular carcinoma cells were maintained in RPMI (Biological Industries-BI) supplemented with 10% fetal bovine serum (FBS) (Gibco/Thermo Fisher Scientific), L-Glutamine (Gibco/Thermo Fisher Scientific), and 100 Units/mL Penicillin/Streptomycin, while ZR-75 breast cancer cells were cultured RPMI (Biological Industries-BI) supplemented with 10% fetal bovine serum (FBS) (Gibco/Thermo Fisher Scientific), 1× sodium pyruvate, and %4.5 glucose. Normal-like MCF-10A breast cells were sustained in DMEM/HAM’S F12 (Hyclone) supplemented with 10% fetal bovine serum (FBS) (Gibco/Thermo Fisher Scientific), EGF (20 ng/mL), Hydrocortisone ([…]), cholera toxin (100 ng/mL), insulin (10 μg/mL), and 100 Units/mL Penicillin/Streptomycin. The cells were cultivated at 37 °C in a humidified incubator under 5% CO2.
as §1

MCF7 = assay: SRB cytotoxicity assay; format: cell-based, human; conditions: Homo sapiens, MCF7, 72 h, 72 h treatment
Procedure: as §2, §1

Mahlavu = assay: SRB cytotoxicity assay; format: cell-based, human; conditions: Homo sapiens, Mahlavu, 72 h, 72 h treatment
Procedure: as §2, §1

Huh7 and MCF7 = assay: SRB cytotoxicity, summary for both cell lines; format: cell-based; conditions: Homo sapiens; one value or range for Huh7 and MCF7 together; read-out: IC50 against both cell lines
Procedure: as §1

SMILES | melting point [°C] | IC50 (Huh7, Mahlavu and MCF7) [µM] | IC50 (Huh7; Homo sapiens, Huh-7, 72 h) [µM] | IC50 (MCF7) [µM] | IC50 (Mahlavu) [µM] | IC50 (Huh7) [µM] | IC50 (Huh7 and MCF7) [µM]
Cc1ccccc1COc1ccc(-c2c(-c3ccc(Cl)cc3)noc2C)cc1 [compound 67, 3-(4-Chlorophenyl)-5-methyl-4-(4-((2-methylbenzyl)oxy)phenyl)isoxazole] | 84.5 to 86.5 | ≥ 20 | > 20 | > 20 | > 20 | – | –
Cc1onc(-c2ccc(OCc3ccccc3)cc2)c1-c1ccc(Cl)cc1 [compound 9, 3-(4-(Benzyloxy)phenyl)-4-(4-chlorophenyl)-5-methylisoxazole] | 114.7 to 115.7 | – | ≥ 20 | > 20 | – | > 20 | ≥ 20
Cc1ccccc1COc1ccc(-c2[nH]ncc2-c2ccc(Cl)cc2)cc1 [compound 71, 4-(4-Chlorophenyl)-5-(4-((2-methylbenzyl)oxy)phenyl)-1H-pyrazole] | 127.8 to 129.8 | 0.7 to 14.4 | 8.4 | 17.5 | 11 | – | –
Cc1cc(-c2ccc(Cl)cc2)n(-c2ccc(OCc3ccccc3C)cc2)n1 [compound 79, 5-(4-Chlorophenyl)-3-methyl-1-(4-((2-methylbenyl)oxy)phenyl)-1H-pyrazole] | 103.4 to 105.2 | 0.7 to 14.4 | 3.9 | 11.8 | 9.6 | – | –
Cc1cc(-c2ccc(OCc3ccccc3C)cc2)n(-c2ccc(Cl)cc2)n1 [compound 69, 1-(4-Chlorophenyl)-3-methyl-5-(4-((2-methylbenzyl)oxy)phenyl)-1H-pyrazole] | 111.8 to 113.6 | 0.7 to 14.4 | 2 | 11.9 | 9.2 | – | –
Cc1ccccc1COc1ccc(-c2noc(N)c2-c2ccc(Cl)cc2)cc1 [compound 65, 4-(4-Chlorophenyl)-3-(4-((2-methylbenzyl)oxy)phenyl)isoxazole-5-amine] | 163.1 to 165.6 | 2 to 3.9 | 2 | 3.6 | 3.9 | – | –
Cc1ccccc1COc1ccc(-c2ccnn2-c2ccc(Cl)cc2)c(F)c1 [compound 88, 1-(4-Chlorophenyl)-5-(2-fluoro-4-((2-methylbenzyl)oxy)phenyl)-1H-pyrazole] | 131.8 to 132.8 | 1.6 to 6.4 | 1.6 | 6.4 | 3.2 | – | –
Cc1ccc(COc2ccc(-c3noc(C)c3-c3ccc(Cl)cc3)cc2)cc1 [compound 24, 4-(4-Chlorophenyl)-5-methyl-3-(4-((4-methylbenzyl)oxy)phenyl)isoxazole] | 116.9 to 118.5 | – | > 20 | > 20 | – | – | ≥ 20
Cc1ccccc1C(=O)Nc1ccc(-c2ccnn2-c2ccc(Cl)cc2)cc1 [compound 91, N-(4-(1-(4-Chlorophenyl)-1H-pyrazol-5-yl)phenyl)-2-methylbenzamide] | 179.1 to 180 | – | > 20 | > 20 | > 20 | – | –
Cc1ccccc1COc1ccc(-c2nn(C)cc2-c2ccc(Cl)cc2)cc1 [compound 72, 4-(4-Chlorophenyl)-1-methyl-3-(4-((2-methylbenzyl)oxy)phenyl)-1H-pyrazole] | 142.2 to 143.4 | 0.7 to 14.4 | 6.7 | 14.4 | 12 | – | –
Cc1cccc(COc2ccc(-c3noc(C)c3-c3ccc(Cl)cc3)cc2)c1 [compound 19, 4-(4-Chlorophenyl)-5-methyl-3-(4-((3-methylbenzyl)oxy)phenyl)isoxazole] | 119.9 to 121 | – | > 20 | > 20 | – | – | ≥ 20
